Test results as given in the supplement of paper PMC8671470.

These compounds were tested on K-562 (assay: cell viability (% survival relative to DMSO control, bortezomib = 0%); higher = less cytotoxic). Conditions: 10 nM; 72 h.
Method in brief: (§1)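 Percent survival figures are means of duplicate wells. They were obtained by CellTiter-Glo luminescence after 10 AML and 5 CML cell lines spent 72 h at 37 °C with 5% CO2 in 384-well plates with compounds at 1, 10, 100, 1000 or 10000 nM. Vehicle was set to 100% and a 10 µM positive control to 0%.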

Compound | cell viability
COC(=O)[C@]12CCC(C)(C)C[C@H]1[C@H]1C(=O)C=C3[C@@]4(C)C=C(C#N)C(=O)C(C)(C)[C@@H]4CC[C@@]3(C)[C@]1(C)CC2 [Bardoxolone methyl] | 97.5%
O=c1oc2c(O)c(O)cc3c(=O)oc4c(O)c(O)cc1c4c23 [Benzoaric Acid] | 93.6%
Cc1c(-c2ccc(-c3ccccc3F)cc2)nc2ccc(F)cc2c1C(=O)O [Brequinar] | 89.2%
O=C1O/C(=C/Br)CCC1c1cccc2ccccc12 (stereo unspecified) [Bromoenol Lactone] | 106%
O=C(O)CCCCC(CCSCc1ccccc1)SCc1ccccc1 (stereo unspecified) [CPI-613] | 90.4%
CC(C)c1cc2c(c(O)c1O)[C@@]1(C(=O)O)CCCC(C)(C)[C@@H]1CC2 [Carnosic acid] | 93.4%
CCN(CC)CCCC(C)Nc1ccnc2cc(Cl)ccc12 (stereo unspecified) [Chloroquine] | 111%
Nc1nc(Cl)nc2c1ncn2[C@H]1C[C@H](O)[C@@H](CO)O1 [Cladribine] | 97.5%
NCCCC(N)(C(=O)O)C(F)F (stereo unspecified) [Difluoromethylornithine] | 104%

Same assay, conditions: 100 nM; 72 h

Compound | cell viability
COc1ccc(S(=O)(=O)N2CCN(S(=O)(=O)c3ccc4c(c3)OCCO4)CC2)cc1 [BML283] | 97.7%
O=c1cc(-c2ccccc2)oc2cc(O)c(O)c(O)c12 [Baicalein] | 102%
COC(=O)[C@]12CCC(C)(C)C[C@H]1[C@H]1C(=O)C=C3[C@@]4(C)C=C(C#N)C(=O)C(C)(C)[C@@H]4CC[C@@]3(C)[C@]1(C)CC2 [Bardoxolone methyl] | 114%
O=c1oc2c(O)c(O)cc3c(=O)oc4c(O)c(O)cc1c4c23 [Benzoaric Acid] | 94.9%
Cc1c(-c2ccc(-c3ccccc3F)cc2)nc2ccc(F)cc2c1C(=O)O [Brequinar] | 92.9%
O=C1O/C(=C/Br)CCC1c1cccc2ccccc12 (stereo unspecified) [Bromoenol Lactone] | 98.1%
O=C(O)CCCCC(CCSCc1ccccc1)SCc1ccccc1 (stereo unspecified) [CPI-613] | 102%
CC(C)c1cc2c(c(O)c1O)[C@@]1(C(=O)O)CCCC(C)(C)[C@@H]1CC2 [Carnosic acid] | 89.4%
CCN(CC)CCCC(C)Nc1ccnc2cc(Cl)ccc12 (stereo unspecified) [Chloroquine] | 105%
Nc1nc(Cl)nc2c1ncn2[C@H]1C[C@H](O)[C@@H](CO)O1 [Cladribine] | 79.8%
NCCCC(N)(C(=O)O)C(F)F (stereo unspecified) [Difluoromethylornithine] | 97%

Same assay, conditions: 1000 nM; 72 h

Compound | cell viability
COc1ccc(S(=O)(=O)N2CCN(S(=O)(=O)c3ccc4c(c3)OCCO4)CC2)cc1 [BML283] | 92.5%
O=c1cc(-c2ccccc2)oc2cc(O)c(O)c(O)c12 [Baicalein] | 108%
COC(=O)[C@]12CCC(C)(C)C[C@H]1[C@H]1C(=O)C=C3[C@@]4(C)C=C(C#N)C(=O)C(C)(C)[C@@H]4CC[C@@]3(C)[C@]1(C)CC2 [Bardoxolone methyl] | 98.8%
O=c1oc2c(O)c(O)cc3c(=O)oc4c(O)c(O)cc1c4c23 [Benzoaric Acid] | 87.7%
Cc1c(-c2ccc(-c3ccccc3F)cc2)nc2ccc(F)cc2c1C(=O)O [Brequinar] | 103%
O=C1O/C(=C/Br)CCC1c1cccc2ccccc12 (stereo unspecified) [Bromoenol Lactone] | 93.5%
O=C(O)CCCCC(CCSCc1ccccc1)SCc1ccccc1 (stereo unspecified) [CPI-613] | 89.2%
CC(C)c1cc2c(c(O)c1O)[C@@]1(C(=O)O)CCCC(C)(C)[C@@H]1CC2 [Carnosic acid] | 87.4%
CCN(CC)CCCC(C)Nc1ccnc2cc(Cl)ccc12 (stereo unspecified) [Chloroquine] | 103%
Nc1nc(Cl)nc2c1ncn2[C@H]1C[C@H](O)[C@@H](CO)O1 [Cladribine] | 28.8%
NCCCC(N)(C(=O)O)C(F)F (stereo unspecified) [Difluoromethylornithine] | 107%

Same assay, conditions: 10000 nM; 72 h

Compound | cell viability
COc1ccc(S(=O)(=O)N2CCN(S(=O)(=O)c3ccc4c(c3)OCCO4)CC2)cc1 [BML283] | 98.6%
O=c1cc(-c2ccccc2)oc2cc(O)c(O)c(O)c12 [Baicalein] | 45.6%
COC(=O)[C@]12CCC(C)(C)C[C@H]1[C@H]1C(=O)C=C3[C@@]4(C)C=C(C#N)C(=O)C(C)(C)[C@@H]4CC[C@@]3(C)[C@]1(C)CC2 [Bardoxolone methyl] | 86.9%
O=c1oc2c(O)c(O)cc3c(=O)oc4c(O)c(O)cc1c4c23 [Benzoaric Acid] | 90.1%
Cc1c(-c2ccc(-c3ccccc3F)cc2)nc2ccc(F)cc2c1C(=O)O [Brequinar] | 40.4%
O=C1O/C(=C/Br)CCC1c1cccc2ccccc12 (stereo unspecified) [Bromoenol Lactone] | 46.9%
O=C(O)CCCCC(CCSCc1ccccc1)SCc1ccccc1 (stereo unspecified) [CPI-613] | 107%
CC(C)c1cc2c(c(O)c1O)[C@@]1(C(=O)O)CCCC(C)(C)[C@@H]1CC2 [Carnosic acid] | 83.2%
CCN(CC)CCCC(C)Nc1ccnc2cc(Cl)ccc12 (stereo unspecified) [Chloroquine] | 86.3%
Nc1nc(Cl)nc2c1ncn2[C@H]1C[C@H](O)[C@@H](CO)O1 [Cladribine] | 20.5%
NCCCC(N)(C(=O)O)C(F)F (stereo unspecified) [Difluoromethylornithine] | 126%

What follows are compounds tested on ML-2 in the same assay as above. Conditions: 1 nM; 72 h.
Method in brief: as §1

Compound | cell viability
COc1ccc(S(=O)(=O)N2CCN(S(=O)(=O)c3ccc4c(c3)OCCO4)CC2)cc1 [BML283] | 102%
O=c1cc(-c2ccccc2)oc2cc(O)c(O)c(O)c12 [Baicalein] | 98.9%
COC(=O)[C@]12CCC(C)(C)C[C@H]1[C@H]1C(=O)C=C3[C@@]4(C)C=C(C#N)C(=O)C(C)(C)[C@@H]4CC[C@@]3(C)[C@]1(C)CC2 [Bardoxolone methyl] | 91.7%
O=c1oc2c(O)c(O)cc3c(=O)oc4c(O)c(O)cc1c4c23 [Benzoaric Acid] | 94.7%
Cc1c(-c2ccc(-c3ccccc3F)cc2)nc2ccc(F)cc2c1C(=O)O [Brequinar] | 97.2%
O=C1O/C(=C/Br)CCC1c1cccc2ccccc12 (stereo unspecified) [Bromoenol Lactone] | 102%
O=C(O)CCCCC(CCSCc1ccccc1)SCc1ccccc1 (stereo unspecified) [CPI-613] | 89.7%
CC(C)c1cc2c(c(O)c1O)[C@@]1(C(=O)O)CCCC(C)(C)[C@@H]1CC2 [Carnosic acid] | 93.4%
CCN(CC)CCCC(C)Nc1ccnc2cc(Cl)ccc12 (stereo unspecified) [Chloroquine] | 108%
Nc1nc(Cl)nc2c1ncn2[C@H]1C[C@H](O)[C@@H](CO)O1 [Cladribine] | 117%
NCCCC(N)(C(=O)O)C(F)F (stereo unspecified) [Difluoromethylornithine] | 93.5%

Same assay, conditions: 10 nM; 72 h

Compound | cell viability
COc1ccc(S(=O)(=O)N2CCN(S(=O)(=O)c3ccc4c(c3)OCCO4)CC2)cc1 [BML283] | 98.6%
O=c1cc(-c2ccccc2)oc2cc(O)c(O)c(O)c12 [Baicalein] | 93.2%
COC(=O)[C@]12CCC(C)(C)C[C@H]1[C@H]1C(=O)C=C3[C@@]4(C)C=C(C#N)C(=O)C(C)(C)[C@@H]4CC[C@@]3(C)[C@]1(C)CC2 [Bardoxolone methyl] | 103%
O=c1oc2c(O)c(O)cc3c(=O)oc4c(O)c(O)cc1c4c23 [Benzoaric Acid] | 101%
Cc1c(-c2ccc(-c3ccccc3F)cc2)nc2ccc(F)cc2c1C(=O)O [Brequinar] | 98.2%
O=C1O/C(=C/Br)CCC1c1cccc2ccccc12 (stereo unspecified) [Bromoenol Lactone] | 100%
O=C(O)CCCCC(CCSCc1ccccc1)SCc1ccccc1 (stereo unspecified) [CPI-613] | 94.3%
CC(C)c1cc2c(c(O)c1O)[C@@]1(C(=O)O)CCCC(C)(C)[C@@H]1CC2 [Carnosic acid] | 105%
